Experimental data published in publication PMC10761730, “Serglycin secreted by late-stage nucleus pulposus cells is a biomarker of intervertebral disc degeneration” (Nature Communications, 2024).

Target: T1, Serglycin (SRGN) (Homo sapiens, UniProt P10124)
T1 construct: endogenous protein in primary human nucleus pulposus cells; CETSA with Western blot read-out
T1 sequence (P10124 28-158): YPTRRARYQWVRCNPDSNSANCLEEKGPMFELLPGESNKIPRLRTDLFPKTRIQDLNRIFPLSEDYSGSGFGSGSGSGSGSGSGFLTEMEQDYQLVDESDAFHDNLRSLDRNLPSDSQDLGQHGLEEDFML
Assay: cellular thermal shift assay (CETSA), Western blot
Type: cell-based
Settings: intact NPCs pretreated with DAP for 12 h, heated 3 min, freeze-thaw lysis; melt curve only in figure

O=c1ccc2ccc(O)c(O)c2o1 [Daphnetin]
cellular thermal shift assay (CETSA), Western blot: CETSA) of DAP and SRGN proteins also suggested that DAP could bind to SRGN
